{"source": "paper PMC7395062", "about": "“Multiparametric assessment of mitochondrial respiratory inhibition in HepG2 and RPTEC/TERT1 cells using a panel of mitochondrial targeting agrochemicals” (Archives of Toxicology, 2020)", "key": {"[1]": {"test_system": "CII/CIII (succinate dehydrogenase / cytochrome bc1 complex)", "format": "cell-based, human", "settings": "permeabilised HepG2; sequential substrates/inhibitors", "procedure": "The test compound is injected and OCR is measured. […] OCR is measured for the second time. […] A third and final OCR measurement is conducted.\nCompounds were injected sequentially and OCR was measured twice. […] ETC inhibition is determined in decreased OCR.\n(§1) All results are average of 2–3 independent experiments."}, "[2]": {"test_system": "HepG2 cells", "test": "Resazurin reduction viability assay, 2D HepG2", "format": "cell-based, human", "settings": "for Effect on resazurin reduction / viability: up to 10 µM, 24 h exposure", "procedure": "(§2) The HepG2 cell line, a human hepatocellular carcinoma, was obtained from ATCC (American Type Culture Collection, Wesel, Germany). […] Cells were maintained at 37 °C in a 5% CO2 humidified atmosphere, fed every 2 to 3 days and passaged at approximately 80% confluence. […] For galactose experiments, the medium was refreshed 24 h before exposure with galactose-containing medium. […] Culture medium was refreshed every 3–4 days and the culture was maintained for 21 days prior to dosing.\n(§3) The conversion of resazurin to fluorescent resorufin was measured in a plate reader at excitation/emission 540/590 nm.\nas §1"}, "[3]": {"test_system": "HepG2 3D spheroids", "test": "Cell death assay (PI staining) in 3D cultured HepG2 spheroids", "format": "cell-based, human", "settings": "for Effect of repeated exposure (5 × 24 h vs 1 × 24 h) on toxic sensitivity: 3D HepG2 spheroids; for EC50: Homo sapiens, HepG2, 24 h", "procedure": "as §2\nAt day 21, the culture medium was replaced by fresh medium containing the compounds in the desired concentration. […] For the repeat exposure scenario, Hoechst was added to the 4th exposure and PI to the 5th exposure. […] The confocal imaging was performed using a Nikon TiE2000 with perfect focus system and XY-stage (Nikon, Amsterdam, The Netherlands). Quantification of the Hoechst and PI signal localization was performed using Nis Elements Analysis software. First, a max projection was created of all z-stacks. The overlapping areas between Hoechst and PI in the projection picture were assessed based on a manually curated intensity threshold. Finally, the fraction of spheroids positive for PI staining was determined.\nas §1"}, "[4]": {"test_system": "RPTEC/TERT1 cells", "test": "Resazurin reduction viability assay, RPTEC/TERT1", "format": "cell-based, human", "settings": "for Statistical significance, Viability Galactose settings Resazurin / Statistical significance, Viability Glucose settings Resazurin: RPTEC/TERT1", "procedure": "These cells were obtained under licence from Evercyte GmBH, Vienna Austria. […] For experiments, cells were plated in a required format plate, allowed to become contact-inhibited and fed 24 h prior to treatment exposure. For experiments in galactose condition, cells were fed 24 h prior to experiment with culture medium (custom made DMEM/F12, PromoCell) in which 5 mM glucose was replaced with 5 mM galactose (Merck, G5388).\nas §3, §1"}, "[5]": {"biological_target": "NADH dehydrogenase (Complex I, CI) (Homo sapiens, UniProt O75251+O75306+P03886)", "sequence (O75251 39-213)": "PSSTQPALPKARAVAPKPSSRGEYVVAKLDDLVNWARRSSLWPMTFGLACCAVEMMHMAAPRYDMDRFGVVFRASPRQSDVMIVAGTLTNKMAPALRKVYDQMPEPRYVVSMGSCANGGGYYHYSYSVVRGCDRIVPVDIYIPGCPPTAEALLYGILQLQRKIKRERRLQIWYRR", "sequence (P03886 whole entry)": "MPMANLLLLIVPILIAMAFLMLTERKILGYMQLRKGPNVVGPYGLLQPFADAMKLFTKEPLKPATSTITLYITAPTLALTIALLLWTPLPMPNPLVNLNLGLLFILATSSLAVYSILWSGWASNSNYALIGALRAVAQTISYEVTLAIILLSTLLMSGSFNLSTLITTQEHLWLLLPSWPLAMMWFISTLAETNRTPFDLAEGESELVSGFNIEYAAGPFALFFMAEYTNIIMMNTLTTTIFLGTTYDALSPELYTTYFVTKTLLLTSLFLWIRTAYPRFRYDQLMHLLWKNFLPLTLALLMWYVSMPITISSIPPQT", "sequence (O75306 34-463)": "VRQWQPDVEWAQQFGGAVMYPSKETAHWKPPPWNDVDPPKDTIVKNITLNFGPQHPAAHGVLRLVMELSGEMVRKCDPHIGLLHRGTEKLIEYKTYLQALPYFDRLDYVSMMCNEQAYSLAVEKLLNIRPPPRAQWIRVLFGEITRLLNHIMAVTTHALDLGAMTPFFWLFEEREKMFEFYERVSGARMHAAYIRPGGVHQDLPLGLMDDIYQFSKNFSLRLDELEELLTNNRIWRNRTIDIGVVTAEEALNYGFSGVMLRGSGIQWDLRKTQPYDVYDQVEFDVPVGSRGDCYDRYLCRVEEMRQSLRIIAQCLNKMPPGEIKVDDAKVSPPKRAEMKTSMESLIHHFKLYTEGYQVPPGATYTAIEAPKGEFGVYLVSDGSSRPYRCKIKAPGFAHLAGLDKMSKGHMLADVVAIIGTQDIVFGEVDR", "settings": "permeabilised HepG2", "quoted_text": "The mitochondrial complex assay uses real-time OCR measurement with sequential addition of specific complex substrates and/or inhibitors to identify the complex within the ETC that is inhibited. […] In the first step, cultured cells are permeabilised and provided with CI substrates. The test compound is injected and OCR is measured. […] OCR is measured for the second time. In the third step, Antimycin A together with ascorbate and tetramethyl phenylenediamine (TMPD) is added to simultaneously block CIII and supply CIV. A third and final OCR measurement is conducted.\nThe following day, cells were washed once in mitochondrial assay solution (MAS), containing 220 mM mannitol (Sigma, M9647), 70 mM sucrose (Sigma, S7903), 10 mM potassium phosphate (Sigma, P5655), 5 mM magnesium chloride (Sigma, M8266), 3 mM HEPES (Sigma, H0887) and 1 mM EGTA (Sigma, E4378) with 0.2% fatty acid-free BSA (Sigma, A8806). […] Each measurement consisted of a thirty second mix and two-minute read cycle. Compounds were injected sequentially and OCR was measured twice. […] Complex inhibition was determined using the second OCR measurement after compound/vehicle injection, normalised to the baseline OCR measurements prior to compound addition. ETC inhibition is determined in decreased OCR. CI inhibition is confirmed if the inhibited OCR by injection A can be rescued after injection B. CII inhibition is determined if there is no inhibition after A, but inhibition after B. CIII inhibition is determined if there is inhibition after A and B, with recovery after C. OCR inhibition after injection C indicates effects downstream of CIII.\nAll results are average of 2–3 independent experiments. Each independent experiment is referred to as biological replicate and includes at least two technical replicates. […] Variation in all performed assays was calculated and represented as standard deviation (SD). Curves were fit using the non-liner regression four-parameter Hill model."}, "[6]": {"settings": "read-out: EC50 cell death 3D HepG2, 1 × 24 h exposure"}, "[7]": {"settings": "read-out: EC50 cell death 3D HepG2, 5 × 24 h exposure"}}, "note": "Read-outs that look alike come from different tables or passages of the source.", "data": [{"smiles": "COC(=O)N(OC)c1ccccc1COc1ccn(-c2ccc(Cl)cc2)n1", "note": "[Pyraclostrobin]", "values": [{"measurement": "ETC-complex specificity pattern (CII/CIII)", "setting": "[1]", "result": "conformed to this pattern"}, {"measurement": "Statistical significance, Viability Galactose settings Resazurin", "setting": "[2]; HepG2, f = 0.4 µM", "result": "* (*p < 0.05 (Tables 3, 4))"}, {"measurement": "Statistical significance, Viability Galactose settings Resazurin", "setting": "[2]; HepG2, g = 7 µM", "result": "* (*p < 0.05 (Tables 3, 4))"}, {"measurement": "Statistical significance, Viability Galactose settings Resazurin", "setting": "[2]; HepG2, h = 10 µM", "result": "* (*p < 0.05 (Tables 3, 4))"}, {"measurement": "Statistical significance, Viability Glucose settings Resazurin", "setting": "[2]; HepG2, glucose, h = 10 µM", "result": "* (*p < 0.05 (Tables 3, 4))"}, {"measurement": "Effect of repeated exposure (5 × 24 h vs 1 × 24 h) on toxic sensitivity", "setting": "[3]", "result": "increased the toxic sensitivity"}, {"measurement": "Statistical significance, Viability Galactose settings Resazurin", "setting": "[4]; f = 0.4 µM", "result": "* (*p < 0.05 (Tables 3, 4))"}, {"measurement": "Statistical significance, Viability Galactose settings Resazurin", "setting": "[4]; g = 7 µM", "result": "* (*p < 0.05 (Tables 3, 4))"}, {"measurement": "Statistical significance, Viability Galactose settings Resazurin", "setting": "[4]; h = 10 µM", "result": "* (*p < 0.05 (Tables 3, 4))"}, {"measurement": "Statistical significance, Viability Glucose settings Resazurin", "setting": "[4]; glucose, g = 7 µM", "result": "* (*p < 0.05 (Tables 3, 4))"}, {"measurement": "Statistical significance, Viability Glucose settings Resazurin", "setting": "[4]; glucose, h = 10 µM", "result": "* (*p < 0.05 (Tables 3, 4))"}]}, {"smiles": "C=C(C)[C@H]1Cc2c(ccc3c2O[C@@H]2COc4cc(OC)c(OC)cc4[C@@H]2C3=O)O1", "note": "[Rotenone]", "values": [{"measurement": "Effect on resazurin reduction / viability", "setting": "[2]; glucose", "result": "mildly affected the viability"}, {"measurement": "EC50", "setting": "[3]; [6]", "result": 0.127, "unit": "µM"}, {"measurement": "EC50", "setting": "[3]; [7]", "result": 0.028, "unit": "µM"}]}, {"smiles": "CC(C)(C)c1ccc(CSc2cnn(C(C)(C)C)c(=O)c2Cl)cc1", "note": "[Pyridaben]", "values": [{"measurement": "Statistical significance, Viability Galactose settings Resazurin", "setting": "[2]; HepG2, d = 0.016 µM", "result": "* (*p < 0.05 (Tables 3, 4))"}, {"measurement": "Statistical significance, Viability Galactose settings Resazurin", "setting": "[2]; HepG2, e = 0.08 µM", "result": "* (*p < 0.05 (Tables 3, 4))"}, {"measurement": "Statistical significance, Viability Galactose settings Resazurin", "setting": "[2]; HepG2, f = 0.4 µM", "result": "* (*p < 0.05 (Tables 3, 4))"}, {"measurement": "Statistical significance, Viability Galactose settings Resazurin", "setting": "[2]; HepG2, g = 7 µM", "result": "* (*p < 0.05 (Tables 3, 4))"}, {"measurement": "Statistical significance, Viability Galactose settings Resazurin", "setting": "[2]; HepG2, h = 10 µM", "result": "* (*p < 0.05 (Tables 3, 4))"}, {"measurement": "Statistical significance, Viability Glucose settings Resazurin", "setting": "[4]; glucose, f = 0.4 µM", "result": "* (*p < 0.05 (Tables 3, 4))"}, {"measurement": "Statistical significance, Viability Glucose settings Resazurin", "setting": "[4]; glucose, g = 7 µM", "result": "* (*p < 0.05 (Tables 3, 4))"}, {"measurement": "Statistical significance, Viability Glucose settings Resazurin", "setting": "[4]; glucose, h = 10 µM", "result": "* (*p < 0.05 (Tables 3, 4))"}]}, {"smiles": "CON=C(C(=O)OC)c1ccccc1CON=C(C)c1cccc(C(F)(F)F)c1", "note": "[Trifloxystrobin]", "values": [{"measurement": "ETC-complex specificity pattern (CII/CIII)", "setting": "[1]", "result": "conformed to this pattern"}, {"measurement": "Statistical significance, Viability Galactose settings Resazurin", "setting": "[2]; HepG2, f = 0.4 µM", "result": "* (*p < 0.05 (Tables 3, 4))"}, {"measurement": "Statistical significance, Viability Galactose settings Resazurin", "setting": "[2]; HepG2, g = 7 µM", "result": "* (*p < 0.05 (Tables 3, 4))"}, {"measurement": "Statistical significance, Viability Galactose settings Resazurin", "setting": "[2]; HepG2, h = 10 µM", "result": "* (*p < 0.05 (Tables 3, 4))"}, {"measurement": "Statistical significance, Viability Glucose settings Resazurin", "setting": "[4]; glucose, h = 10 µM", "result": "* (*p < 0.05 (Tables 3, 4))"}]}, {"smiles": "CO/C=C(/C(=O)OC)c1ccccc1COc1cccc(C(F)(F)F)n1", "note": "[Picoxystrobin]", "values": [{"measurement": "ETC-complex specificity pattern (CII/CIII)", "setting": "[1]", "result": "conformed to this pattern"}, {"measurement": "Statistical significance, Viability Galactose settings Resazurin", "setting": "[2]; HepG2, f = 0.4 µM", "result": "* (*p < 0.05 (Tables 3, 4))"}, {"measurement": "Statistical significance, Viability Galactose settings Resazurin", "setting": "[2]; HepG2, g = 7 µM", "result": "* (*p < 0.05 (Tables 3, 4))"}, {"measurement": "Statistical significance, Viability Galactose settings Resazurin", "setting": "[2]; HepG2, h = 10 µM", "result": "* (*p < 0.05 (Tables 3, 4))"}, {"measurement": "Effect of repeated exposure (5 × 24 h vs 1 × 24 h) on toxic sensitivity", "setting": "[3]", "result": "increased the toxic sensitivity"}, {"measurement": "Statistical significance, Viability Galactose settings Resazurin", "setting": "[4]; g = 7 µM", "result": "* (*p < 0.05 (Tables 3, 4))"}, {"measurement": "Statistical significance, Viability Galactose settings Resazurin", "setting": "[4]; h = 10 µM", "result": "* (*p < 0.05 (Tables 3, 4))"}, {"measurement": "Statistical significance, Viability Glucose settings Resazurin", "setting": "[4]; glucose, h = 10 µM", "result": "* (*p < 0.05 (Tables 3, 4))"}]}, {"smiles": "CCCCCC[C@H]1C(=O)O[C@H](C)[C@H](NC(=O)c2cccc(NC=O)c2O)C(=O)O[C@@H](C)[C@@H]1OC(=O)CC(C)C", "note": "[Antimycin A]", "values": [{"measurement": "ETC-complex specificity pattern (CII/CIII)", "setting": "[1]", "result": "conformed to this pattern"}, {"measurement": "Statistical significance, Viability Galactose settings Resazurin", "setting": "[2]; HepG2, d = 0.016 µM", "result": "* (*p < 0.05 (Tables 3, 4))"}, {"measurement": "Statistical significance, Viability Galactose settings Resazurin", "setting": "[2]; HepG2, e = 0.08 µM", "result": "* (*p < 0.05 (Tables 3, 4))"}, {"measurement": "Statistical significance, Viability Galactose settings Resazurin", "setting": "[2]; HepG2, f = 0.4 µM", "result": "* (*p < 0.05 (Tables 3, 4))"}, {"measurement": "Statistical significance, Viability Galactose settings Resazurin", "setting": "[2]; HepG2, g = 7 µM", "result": "* (*p < 0.05 (Tables 3, 4))"}, {"measurement": "Statistical significance, Viability Galactose settings Resazurin", "setting": "[2]; HepG2, h = 10 µM", "result": "* (*p < 0.05 (Tables 3, 4))"}, {"measurement": "Effect of repeated exposure (5 × 24 h vs 1 × 24 h) on toxic sensitivity", "setting": "[3]", "result": "increased the toxic sensitivity"}, {"measurement": "EC50", "setting": "[3]; [6]", "result": "> 10", "unit": "µM"}, {"measurement": "EC50", "setting": "[3]; [7]", "result": 0.074, "unit": "µM"}, {"measurement": "Statistical significance, Viability Galactose settings Resazurin", "setting": "[4]; e = 0.08 µM", "result": "* (*p < 0.05 (Tables 3, 4))"}, {"measurement": "Statistical significance, Viability Galactose settings Resazurin", "setting": "[4]; f = 0.4 µM", "result": "* (*p < 0.05 (Tables 3, 4))"}, {"measurement": "Statistical significance, Viability Galactose settings Resazurin", "setting": "[4]; g = 7 µM", "result": "* (*p < 0.05 (Tables 3, 4))"}, {"measurement": "Statistical significance, Viability Galactose settings Resazurin", "setting": "[4]; h = 10 µM", "result": "* (*p < 0.05 (Tables 3, 4))"}, {"measurement": "Statistical significance, Viability Glucose settings Resazurin", "setting": "[4]; glucose, g = 7 µM", "result": "* (*p < 0.05 (Tables 3, 4))"}, {"measurement": "Statistical significance, Viability Glucose settings Resazurin", "setting": "[4]; glucose, h = 10 µM", "result": "* (*p < 0.05 (Tables 3, 4))"}]}, {"smiles": "COc1cc(CNC(=O)CCCC/C=C/C(C)C)ccc1O", "note": "[Capsaicin]", "values": [{"measurement": "LOEL, CI inhibition in mitochondrial complex assay", "setting": "[5]", "result": 50, "unit": "µM"}, {"measurement": "ETC-complex specificity pattern (CI)", "setting": "[5]; OCR inhibition after injection, recovery with succinate", "result": "expected CI-specificity pattern"}, {"measurement": "Effect on resazurin reduction / viability", "setting": "[2]; glucose", "result": "did not affect resazurin reduction"}, {"measurement": "Statistical significance, Viability Glucose settings Resazurin", "setting": "[4]; glucose, h = 10 µM", "result": "* (*p < 0.05 (Tables 3, 4))"}, {"measurement": "Effect on resazurin reduction", "setting": "[4]; up to 10 µM, 24 h exposure, glucose", "result": "did not affect resazurin reduction"}]}]}
